By IC50 is commonly meant the concentration that inhibits the measured activity by half.

This note sets out measurements from patent publication US10479795B2 (Incyte Corporation, priority 2016, dated 2019).

Structures can show the parent of a compound that is named as a salt. Where two headings read alike, the source gives them in different places. Where only a bound is given, the exact number is not on record here.

The target of test [1] is PI3Kδ (p110δ/p85α) Recombinant Human Protein (Homo sapiens (Human), UniProt O00329). The experiment in a line: PI3Kδ Scintillation Proximity Assay. Type of test: biochemical. The method in brief: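 Kinase reaction run at room temperature in 20 mM MOPS pH 6.7, 10 mM MgCl2, 5 mM DTT, 0.03% CHAPS with 20 μM PIP2, 2 μM ATP plus [γ-33P]ATP, 3.4 nM enzyme, 2% DMSO; 120 min. Quenched with WGA SPA beads/EDTA, counted by scintillation; IC50 from % solvent-control activity vs log concentration.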
PI3Kδ (p110δ/p85α) Recombinant Human Protein, sequence (O00329 whole entry): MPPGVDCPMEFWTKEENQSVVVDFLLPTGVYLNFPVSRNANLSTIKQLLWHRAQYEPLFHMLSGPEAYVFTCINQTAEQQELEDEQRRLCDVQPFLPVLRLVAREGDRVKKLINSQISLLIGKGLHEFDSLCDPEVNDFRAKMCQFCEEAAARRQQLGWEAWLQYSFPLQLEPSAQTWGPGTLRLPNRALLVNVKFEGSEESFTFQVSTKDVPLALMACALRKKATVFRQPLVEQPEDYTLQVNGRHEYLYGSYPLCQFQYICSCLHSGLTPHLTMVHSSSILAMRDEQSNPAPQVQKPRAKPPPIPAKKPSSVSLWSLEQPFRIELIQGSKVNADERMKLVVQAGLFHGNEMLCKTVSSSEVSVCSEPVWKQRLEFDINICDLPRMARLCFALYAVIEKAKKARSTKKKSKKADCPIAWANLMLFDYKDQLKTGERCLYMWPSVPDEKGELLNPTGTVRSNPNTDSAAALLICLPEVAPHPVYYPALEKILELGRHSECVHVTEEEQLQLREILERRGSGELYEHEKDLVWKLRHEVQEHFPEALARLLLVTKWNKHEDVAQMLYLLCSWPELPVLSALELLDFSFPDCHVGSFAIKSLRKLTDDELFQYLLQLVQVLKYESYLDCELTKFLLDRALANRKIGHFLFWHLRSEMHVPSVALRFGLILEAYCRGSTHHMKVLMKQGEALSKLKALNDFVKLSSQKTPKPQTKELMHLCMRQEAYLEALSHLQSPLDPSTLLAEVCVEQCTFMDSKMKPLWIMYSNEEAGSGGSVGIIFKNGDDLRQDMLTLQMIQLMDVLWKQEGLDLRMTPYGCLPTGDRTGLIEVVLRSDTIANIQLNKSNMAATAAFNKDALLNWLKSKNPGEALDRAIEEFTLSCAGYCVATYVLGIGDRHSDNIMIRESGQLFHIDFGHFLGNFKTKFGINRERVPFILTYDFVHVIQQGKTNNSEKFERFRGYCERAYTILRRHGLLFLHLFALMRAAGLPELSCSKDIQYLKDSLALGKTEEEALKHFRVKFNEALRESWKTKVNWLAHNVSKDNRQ
PI3Kδ (p110δ/p85α) Recombinant Human Protein, sequence (P27986 whole entry partner): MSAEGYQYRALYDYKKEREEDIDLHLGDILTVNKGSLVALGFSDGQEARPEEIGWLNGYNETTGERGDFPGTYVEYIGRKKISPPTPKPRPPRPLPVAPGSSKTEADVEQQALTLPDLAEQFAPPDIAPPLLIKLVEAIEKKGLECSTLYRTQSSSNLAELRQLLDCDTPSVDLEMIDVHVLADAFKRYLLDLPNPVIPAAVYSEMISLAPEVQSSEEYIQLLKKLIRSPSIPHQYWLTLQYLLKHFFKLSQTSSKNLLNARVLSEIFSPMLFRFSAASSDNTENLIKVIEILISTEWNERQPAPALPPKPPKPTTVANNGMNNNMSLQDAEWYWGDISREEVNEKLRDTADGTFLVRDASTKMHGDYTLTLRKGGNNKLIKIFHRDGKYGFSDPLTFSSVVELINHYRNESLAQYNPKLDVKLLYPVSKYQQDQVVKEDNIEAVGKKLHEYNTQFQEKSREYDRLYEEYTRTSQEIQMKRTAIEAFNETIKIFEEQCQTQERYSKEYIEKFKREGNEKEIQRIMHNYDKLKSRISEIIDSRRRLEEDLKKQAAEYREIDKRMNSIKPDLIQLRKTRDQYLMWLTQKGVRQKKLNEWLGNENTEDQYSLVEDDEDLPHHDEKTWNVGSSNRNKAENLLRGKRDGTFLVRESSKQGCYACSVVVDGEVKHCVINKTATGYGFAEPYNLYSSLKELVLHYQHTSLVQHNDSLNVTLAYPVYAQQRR

The target of test [2] is PI3Kγ (p110γ) Recombinant Human Protein (Homo sapiens (Human), UniProt P48736). The experiment in a line: PI3K-γ Scintillation Proximity Assay. To be noted: read-out: PI3Kγ IC50. The format is biochemical. The method in brief:
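Recombinant human p110γ assayed at room temperature in 20 mM MOPS pH 6.7, 10 mM MgCl2, 5 mM DTT, 0.03% CHAPS, 2% DMSO, with 20 μM PIP2 and 2 μM ATP plus [γ-33P]ATP. Product captured on WGA SPA beads overnight and counted; IC50 fitted from % of solvent-control activity versus log inhibitor concentration.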
On the technique in general: SPA uses beads or plates that emit light when radiolabelled molecules are held near them.

The subject of test [3] is Phosphorylated Ribosomal Protein S6 (RPS6). The test can be described thus: THP-1 RPS6 ELISA Assay. The format is cell-based, Human. To be noted: THP-1 cells, read-out: PI3Kγ_THP1_RPS6_ELISA IC50. An outline of the steps: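 Serum-starved THP-1 cells were preincubated with a concentration range of compound for 2 h at 37 °C, then stimulated with 10 nM MCP-1 for 15 min. Phospho-RPS6 in lysates was quantified by ELISA at 450 nm. IC50 came from percent inhibition versus log inhibitor concentration.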
A general note: ELISA stands for enzyme-linked immunosorbent assay.

PI3Kγ (p110γ) Recombinant Human Protein, sequence (P48736 whole entry): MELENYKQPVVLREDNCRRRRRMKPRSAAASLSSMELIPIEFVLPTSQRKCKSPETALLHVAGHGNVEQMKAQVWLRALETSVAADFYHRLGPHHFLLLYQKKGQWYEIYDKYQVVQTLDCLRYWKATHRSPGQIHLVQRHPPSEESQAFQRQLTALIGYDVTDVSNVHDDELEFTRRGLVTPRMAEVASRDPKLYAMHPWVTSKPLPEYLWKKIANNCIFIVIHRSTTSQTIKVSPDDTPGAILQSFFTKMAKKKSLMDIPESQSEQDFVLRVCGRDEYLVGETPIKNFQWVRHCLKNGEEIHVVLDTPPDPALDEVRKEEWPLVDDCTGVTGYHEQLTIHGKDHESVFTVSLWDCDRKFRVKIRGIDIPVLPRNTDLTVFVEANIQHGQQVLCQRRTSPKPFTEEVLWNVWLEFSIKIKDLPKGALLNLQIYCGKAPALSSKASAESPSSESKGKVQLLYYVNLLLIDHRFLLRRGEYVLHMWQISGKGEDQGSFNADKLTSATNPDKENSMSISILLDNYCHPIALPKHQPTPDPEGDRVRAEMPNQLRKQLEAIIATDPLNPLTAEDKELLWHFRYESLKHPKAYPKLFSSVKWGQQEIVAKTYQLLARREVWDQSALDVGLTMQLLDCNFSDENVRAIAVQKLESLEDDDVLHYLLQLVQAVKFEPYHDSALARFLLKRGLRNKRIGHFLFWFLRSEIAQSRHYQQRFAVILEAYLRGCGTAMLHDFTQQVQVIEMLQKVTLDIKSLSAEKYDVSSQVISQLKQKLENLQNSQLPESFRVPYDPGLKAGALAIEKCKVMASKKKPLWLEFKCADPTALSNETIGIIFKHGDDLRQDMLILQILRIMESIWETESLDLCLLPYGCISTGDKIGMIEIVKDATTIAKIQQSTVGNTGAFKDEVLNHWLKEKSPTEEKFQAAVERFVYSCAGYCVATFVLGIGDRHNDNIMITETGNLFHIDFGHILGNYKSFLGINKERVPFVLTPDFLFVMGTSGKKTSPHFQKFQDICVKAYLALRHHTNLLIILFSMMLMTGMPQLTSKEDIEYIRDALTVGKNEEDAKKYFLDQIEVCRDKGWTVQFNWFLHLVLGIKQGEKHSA

With `Cc1ccc(S(=O)(=O)NC23CCC(CO)(C2)C3)cc1-c1cnc2c(N)nc(C3CC3)nn12` [Example 259, 3-(4-Amino-2-cyclopropylimidazo[2,1-f][1,2,4]triazin-7-yl)-N-(4-(hydroxymethyl)bicyclo[2.1.1]hexan-1-yl)-4-methylbenzenesulfonamide trifluoroacetate salt], the IC50 in test [1] was 100 to 500 nM; in test [2], less than 100 nM; in test [3] (Homo sapiens), less than 100 nM.

`[2H]C([2H])([2H])c1ccc(S(=O)(=O)N(C)C23CCC(C#N)(C2)C3)cc1-c1cnc2c(N)ncnn12` [Example 261, 3-(4-Aminoimidazo[2,1-f][1,2,4]triazin-7-yl)-N-(4-cyanobicyclo[2.1.1]hexan-1-yl)-N-methyl-4-(methyl-d3)benzenesulfonamide]: the IC50 in test [1] was 500 to 2000 nM; in test [2], less than 100 nM; in test [3] (Homo sapiens) it was less than 100 nM.

Regarding `Cc1cn2c(-c3cc(S(=O)(=O)NC45CCC(CO)(C4)C5)ccc3C)cnc2c(N)n1` [Example 262, 3-(8-Amino-6-methylimidazo[1,2-a]pyrazin-3-yl)-N-(4-(hydroxymethyl)bicyclo[2.1.1]hexan-1-yl)-4-methylbenzenesulfonamide], the half-maximal inhibitory concentration (IC50) in test [1] was less than 100 nM; in test [2], less than 100 nM; in test [3] (Homo sapiens), 100 to 500 nM.

Consider `Cc1cn2c(-c3cc(S(=O)(=O)NC45CCC(C#N)(C4)C5)ccc3C)cnc2c(N)n1` [Example 263, 3-(8-Amino-6-methylimidazo[1,2-a]pyrazin-3-yl)-N-(4-cyanobicyclo[2.1.1]hexan-1-yl)-4-methylbenzenesulfonamide trifluoroacetate salt], for which the IC50 in test [1] is 100 to 500 nM; in test [2] it was less than 100 nM; in test [3] (Homo sapiens) it was 100 to 500 nM.

For the compound `Cc1cn2c(-c3cc(S(=O)(=O)NC45CC(C#N)(C4)C5)ccc3C)cnc2c(N)n1` [Example 264, 3-(8-Amino-6-methylimidazo[1,2-a]pyrazin-3-yl)-N-(3-cyanobicyclo[1.1.1]pentan-1-yl)-4-methylbenzenesulfonamide trifluoroacetate salt], the 50% inhibitory concentration (IC50) in test [1] is 100 to 500 nM; in test [2], less than 100 nM; in test [3] (Homo sapiens), 100 to 500 nM.

On to `Cc1nc(N)c2ncc(-c3cc(S(=O)(=O)NC45CCC(C#N)(C4)C5)ccc3C)n2n1` [Example 265, 3-(4-Amino-2-methylimidazo[1,2-f][1,2,4]triazin-7-yl)-N-(4-cyanobicyclo[2.1.1]hexan-1-yl)-4-methylbenzenesulfonamide trifluoroacetate salt], for which the 50% inhibitory concentration (IC50) in test [1], in test [2] and in test [3] was less than 100 nM throughout.

On to `Cc1nc(N)c2ncc(-c3cc(S(=O)(=O)NC45CCC(CO)(C4)C5)ccc3C)n2n1` [Example 268, 3-(4-Amino-2-methylimidazo[1,2-f][1,2,4]triazin-7-yl)-N-(4-(hydroxymethyl)bicyclo[2.1.1]hexan-1-yl)-4-methylbenzenesulfonamide trifluoroacetate salt], for which the IC50 in test [1] is 100 to 500 nM; in test [2] it was less than 100 nM; in test [3], 100 to 500 nM.

Regarding `Cc1nc(N)c2ncc(-c3cc(S(=O)(=O)NCC4(O)CCC4)ccc3C)n2n1` [Example 269, 3-(4-Amino-2-methylimidazo[1,2-f][1,2,4]triazin-7-yl)-N-((1-hydroxycyclobutyl)methyl)-4-methylbenzenesulfonamide trifluoroacetate salt], the IC50 in test [1] is 100 to 500 nM; in test [2] it was less than 100 nM; in test [3] it was 100 to 500 nM.

In the case of `Cc1nc(N)c2ncc(-c3cc(S(=O)(=O)NC45CC(C#N)(C4)C5)ccc3C)n2n1` [Example 270, 3-(4-Amino-2-methylimidazo[1,2-f][1,2,4]triazin-7-yl)-N-(3-cyanobicyclo[1.1.1]pentan-1-yl)-4-methylbenzenesulfonamide trifluoroacetate salt], the IC50 was 100 to 500 nM in test [1], less than 100 nM in test [2] and less than 100 nM in test [3].

For the compound `Cc1nc(N)c2ncc(-c3cc(S(=O)(=O)N[C@H]4CC[C@](C)(O)CC4)ccc3C)n2n1` [Example 271, 3-(4-amino-2-methylimidazo[1,2-f][1,2,4]triazin-7-yl)-N-((1r,4r)-4-hydroxy-4-methylcyclohexyl)-4-methylbenzenesulfonamide trifluoroacetate salt], the 50% inhibitory concentration (IC50) in test [1] is 100 to 500 nM; in test [2], less than 100 nM; in test [3], less than 100 nM.

In the case of `Cc1nc(N)c2ncc(-c3cc(S(=O)(=O)N[C@H]4C[C@H](C#N)C4)ccc3C)n2n1` [Example 272, 3-(4-amino-2-methylimidazo[1,2-f][1,2,4]triazin-7-yl)-N-((1r,3r)-3-cyanocyclobutyl)-4-methylbenzenesulfonamide trifluoroacetate salt], the IC50 in test [1] was 100 to 500 nM; in test [2], less than 100 nM; in test [3], 100 to 500 nM.

Regarding `Cc1nc(N)c2ncc(-c3cc(S(=O)(=O)NCC(C)(C)O)ccc3C)n2n1` [Example 273, 3-(4-amino-2-methylimidazo[1,2-f][1,2,4]triazin-7-yl)-N-(2-hydroxy-2-methylpropyl)-4-methylbenzenesulfonamide trifluoroacetate salt], the values for the IC50 in test [1], in test [2] and in test [3] were 500 to 2000 nM, less than 100 nM and 100 to 500 nM, respectively.

For the compound `Cc1ccc(S(=O)(=O)NC23CC(CO)(C2)C3)cc1-c1cnc2c(N)nc(C(F)(F)F)cn12` [Example 274, 3-(8-Amino-6-(trifluoromethyl)imidazo[1,2-a]pyrazin-3-yl)-N-(3-(hydroxymethyl)bicyclo[1.1.1]pentan-1-yl)-4-methylbenzenesulfonamide trifluoroacetate salt], the IC50 in test [1] is 100 to 500 nM; in test [2], less than 100 nM; in test [3] (Homo sapiens), less than 100 nM.

As to `Cc1ccc(S(=O)(=O)NC23CCC(CO)(C2)C3)cc1-c1cnc2c(N)nc(C(F)(F)F)cn12` [Example 275, 3-(8-Amino-6-(trifluoromethyl)imidazo[1,2-a]pyrazin-3-yl)-N-(4-(hydroxymethyl)bicyclo[2.1.1]hexan-1-yl)-4-methylbenzenesulfonamide trifluoroacetate salt], the IC50 in test [1] is 100 to 500 nM; in test [2] it was less than 100 nM; in test [3] (Homo sapiens), 100 to 500 nM.

On to `Cc1ccc(S(=O)(=O)NC23CC(CC#N)(C2)C3)cc1-c1cnc2c(N)nc(C(F)(F)F)cn12` [Example 276, 3-(8-Amino-6-(trifluoromethyl)imidazo[1,2-a]pyrazin-3-yl)-N-(3-(cyanomethyl)bicyclo[1.1.1]pentan-1-yl)-4-methylbenzenesulfonamide trifluoroacetate salt], for which the half-inhibitory concentration (IC50) in test [1] is 100 to 500 nM; in test [2], less than 100 nM; in test [3] (Homo sapiens), less than 100 nM.

Take `COC(=O)C12CC(NS(=O)(=O)c3ccc(C)c(-c4cnc5c(N)nc(C(F)(F)F)cn45)c3)(C1)C2` [Example 277, Methyl 3-(3-(8-amino-6-(trifluoromethyl)imidazo[1,2-a]pyrazin-3-yl)-4-methylphenylsulfonamido)bicyclo[1.1.1]pentane-1-carboxylate trifluoroacetate salt]: the half-maximal inhibitory concentration (IC50) in test [1] was 100 to 500 nM; in test [2], less than 100 nM; in test [3] (Homo sapiens) it was less than 100 nM.
